Assay [1] relates to anti-etofenprox antibody I (E-antibody I). The experiment in a line: Indirect competitive ELISA employing E-antibody I. It counts as binding, rabbit. Particulars: inhibition rate relative to etofenprox at its IC50 concentration (=100%); antibody 1/40,000, 50% methanol. How it is done: 1. To a 96-well polystyrene microtiter plate, a solution of the conjugate between rabbit serum albumin (RSA) and the haptenic compound (I) dissolved in a coating buffer solution [10 mM phosphate buffer solution (pH 7.5), 100 mM NaC1] to give […] was added as an antigen at a ratio of 0.1 ml/well, followed by incubation at 4° C. overnight, whereby the antigen was adsorbed on the plate. After the excess solution was drained, a 3% solution of skim milk was added to the wells at a ratio of 0.3 ml/well, followed by incubation at 25° C. for one hour. The plate was washed thrice with a washing buffer [10 mM phosphate buffer solution (pH 7.2), 0.8% NaC1, 0.02% KCl, 0.02% "Tween 20"], whereby an antigen-coated plate was obtained.
2. The E-antibody I was diluted 20,000-fold with a diluting buffer [10 mM phosphate buffer solution (pH 7.5), 0.8% NaCl, 0.02% KCl] and was then mixed with a solution of etofenprox in methanol at a ratio of 1:1 to give an antibody concentration and a methanol concentration, both in the resulting solution, of 1/40,000 and 50%, respectively. The solution was reacted by incubation at 25° C. for one hour. The reaction mixture was added to the antigen-coated plate at a rate of 0.1 ml/well, followed by the reaction at 25° C. for one hour. The plate was then washed thrice with the washing buffer.
3. A conjugate between horseradish peroxidase and anti-rabbit IgG goat IgG (a second antibody) was diluted 10,000-fold with the washing buffer. The diluted conjugate was added to the antigen-coated plate at a rate of 0.1 ml/well, followed by incubation at 25° C. for one hour. The plate was washed thrice with the washing buffer.
4. To the antigen-coated plate, a chromogenic solution of o-phenylenediamine [0.2% (v/v) o-phenylenediamine and 100 mM phosphate-citrate buffer solution [pH 5.0, 0.003% (v/v) hydrogen peroxide] was added in an amount of 0.2 ml/well, followed by incubation at 25° C. for 10 minutes. The enzymatic reaction was then terminated by adding 4N sulfuric acid to the plate by at a rate of 0.05 ml/well. The absorbances at 492 nm and 630 nm were thereafter measured, respectively. According to this method, etofenprox concentrations ranging from 10 ng/ml to 10,000 ng/ml were successfully measured.
A solution of each of various pyrethroid compounds in methanol (having a concentration of 2-20,000 ng/ml) was mixed with a solution of the E antibody I, which had been diluted 20,000-fold with a diluting buffer, at a ratio of 1:1, followed by incubation at 25° C. for one hour.
Using the reaction mixture, measurement was conducted by the ELISA method as described in Example 8. The absorbance of the reaction mixture which had been obtained without addition of any pyrethroid compound is designated as 100%. The concentration of etophenprox. which inhibited 50% of the absorbance is designated as IC50 concentration. The inhibition rates of other pyrethroid compounds when the inhibition rate of ethophenprox at IC50 concentration is designated as 100% are shown as cross reactivity in Table 1.
On the technique in general: An ELISA detects its analyte on a solid surface through an enzyme-linked reagent.

Assay [2] deals with anti-etofenprox antibody II (E-antibody II). Put plainly: Indirect competitive ELISA employing E-antibody II. The format is binding, rabbit. The settings on record: inhibition rate relative to etofenprox at its IC50 concentration (=100%); antibody 1/80,000, 20% methanol. On the procedure:
The ELISA method employing E-antibody II, on the other hand, will be described next. As the antigen, a 0.01 μg/ml solution of the conjugate between the haptenic compound (II) and RSA was employed. An E-antibody II solution, which had been diluted 64,000-fold, and a methanol solution of etofenprox were mixed at a ratio of 4:1 to give an antibody concentration and methanol concentration, each in the resulting solution, of 1/80,000 and 20%, respectively. The resulting solution was then reacted. As a second antibody, antirabbit IgG goat IgG in the form of a 5000-fold dilution was employed. In a similar manner to the above ELISA method, etofenprox concentrations ranging from 3 ng/ml to 1,000 ng/ml were successfully measured.
In addition, solutions of each of various pyrethroid compounds in methanol (concentration: 5-50,000 ng/ml) were each mixed with an E antibody II solution, which had been diluted 64,000-fold, at a ratio of 1:4, followed by incubation at 25° C. for one hour. The reaction mixture was treated as described in Example 8 and its cross reactivity was obtained.
The inhibition rates of other pyrethroid compounds when the inhibition rate of ethophenprox at IC50 concentration is designated as 100% are also shown as cross reactivity in Table 1.

With `C=CCC1=C(C)C(OC(=O)C2C(C=C(C)C)C2(C)C)CC1=O` (stereo not shown) [Allethrin, allethrin], in assay [1], the “Cross reactivity (%) E antibody I” value is listed as 46%. In assay [2], the “Cross reactivity (%) E antibody II” value is 54%.

Regarding `Cc1c(COC(=O)C2C(C=C(Cl)C(F)(F)F)C2(C)C)cccc1-c1ccccc1` (stereo not shown) [Biphenthrin, biphenthrin], in assay [1], the “Cross reactivity (%) E antibody I” value stood at 86%. The “Cross reactivity (%) E antibody II” value in assay [2] is 81%.

In the case of `CCOc1ccc(C2(C(=O)OC(C#N)c3cccc(Oc4ccccc4)c3)CC2(Cl)Cl)cc1` (stereo not shown) [Cycloprothrin, cycloprothrin], the “Cross reactivity (%) E antibody I” value in assay [1] came to 103%. The “Cross reactivity (%) E antibody II” value in assay [2] stood at 54%.

In the case of `CC1(C)C(/C=C(\Cl)C(F)(F)F)C1C(=O)OC(C#N)c1cccc(Oc2ccccc2)c1` (stereo not shown) [Cyhalothrin, cyhalothrin], the “Cross reactivity (%) E antibody I” value in assay [1] is 92%. Also, in assay [2], the “Cross reactivity (%) E antibody II” value was found to be 36%.

As for `CC1(C)C(C(=O)OC(C#N)c2cccc(Oc3ccccc3)c2)C1(C)C` (stereo not shown) [Fenpropathrin, fenpropathrin], in assay [1], the “Cross reactivity (%) E antibody I” value was 136%. The “Cross reactivity (%) E antibody II” value in assay [2] is 48%.

For the compound `CC(C)C(C(=O)OC(C#N)c1cccc(Oc2ccccc2)c1)c1ccc(Cl)cc1` (stereo not shown) [Fenvarerate, fenvarerate], in assay [1], the “Cross reactivity (%) E antibody I” value amounted to 47%. Also, the “Cross reactivity (%) E antibody II” value in assay [2] worked out at 50%.

As for `CC(C)[C@H](C(=O)OC(C#N)c1cccc(Oc2ccccc2)c1)c1ccc(OC(F)F)cc1` (stereo partly shown) [Flucythrinate, flucythrinate], in assay [1], the “Cross reactivity (%) E antibody I” value is on record as 126%. Further, the “Cross reactivity (%) E antibody II” value in assay [2] turned out to be 60%.

In the case of `CCOc1ccc(C(COCc2cccc(Oc3ccc(Cl)cc3)c2)C(F)(F)F)cc1` (stereo not shown) [Flufenprox], in assay [1], the “Cross reactivity (%) E antibody I” value came to 108%. For the same compound, in assay [2], the “Cross reactivity (%) E antibody II” value was 74%.

Consider `CC(C)[C@H](Nc1ccc(C(F)(F)F)cc1Cl)C(=O)OC(C#N)c1cccc(Oc2ccccc2)c1` (stereo partly shown) [Fluvalinate, fluvalinate], for which the “Cross reactivity (%) E antibody I” value in assay [1] worked out at 70%. Further, the “Cross reactivity (%) E antibody II” value in assay [2] is recorded as 23%.

Regarding `CC(C)(COCc1cccc(Oc2ccccc2)c1)c1ccc(OC(F)(F)Br)cc1` [Halfenprox, halfenprox], in assay [1], the “Cross reactivity (%) E antibody I” value stood at 85%. For the same compound, the “Cross reactivity (%) E antibody II” value in assay [2] came out at 75%.

For `CC1(C)[C@H](C(=O)OCc2coc(Cc3ccccc3)c2)[C@@H]1/C=C1\CCSC1=O` [Kadethrin, kadethrin], the “Cross reactivity (%) E antibody I” value in assay [1] is 62%. Also, the “Cross reactivity (%) E antibody II” value in assay [2] came to 164%.

Regarding `CCOc1ccc(C(C)(C)CCCc2cccc(Oc3ccccc3)c2)cc1` [MTI-790, 1-(3-phenoxyphenyl)-4-(4-ethoxyphenyl)-4-methylpentane], the “Cross reactivity (%) E antibody I” value in assay [1] is 23%. In addition, the “Cross reactivity (%) E antibody II” value in assay [2] is 37%.

As for `CCOc1ccc(C(C)(C)CCCc2ccc(F)c(Oc3ccccc3)c2)cc1` [MTI-800, 1-(3-phenoxy-4-fluorophenyl)-4-(4-ethoxyphenyl)-4-methylpentane], the “Cross reactivity (%) E antibody I” value in assay [1] is given as 54%. Also, the “Cross reactivity (%) E antibody II” value in assay [2] came to 34%.

Turning to `CC(C)=CC1C(C(=O)OCc2coc(Cc3ccccc3)c2)C1(C)C` (stereo not shown) [Resmethrin, resmethrin], the “Cross reactivity (%) E antibody I” value in assay [1] amounted to 74%. The “Cross reactivity (%) E antibody II” value in assay [2] was determined as 85%.

As to `CCOc1ccc([Si](C)(C)OCc2cccc(Oc3ccccc3)c2)cc1` [SSI-116, dimethyl-(4-ethoxyphenyl)-(3-phenoxybenzyloxy)silane], the “Cross reactivity (%) E antibody I” value in assay [1] came to 70%. Also, the “Cross reactivity (%) E antibody II” value in assay [2] is recorded as 103%.

Take `CCOc1ccc([Si](C)(C)CCCc2ccc(F)c(Oc3ccccc3)c2)cc1` [Silafluofen, silafluofen]: the “Cross reactivity (%) E antibody I” value in assay [1] is 57%. Besides, the “Cross reactivity (%) E antibody II” value in assay [2] is given as 32%.

With `CC1(C)[C@H](C(=O)O[C@H](C#N)c2cccc(Oc3ccccc3)c2)[C@@H]1C(Br)C(Br)(Br)Br` (stereo partly shown) [Tralomethrin, tralomethrin], in assay [1], the “Cross reactivity (%) E antibody I” value amounted to 116%. Besides, in assay [2], the “Cross reactivity (%) E antibody II” value is 67%.
